Measured values published in PMC6353796, “Thermostable Branched-Chain Amino Acid Transaminases From the Archaea Geoglobus acetivorans and Archaeoglobus fulgidus: Biochemical and Structural Characterization” (Frontiers in Bioengineering and Biotechnology, 2019).
Blank lines part the entries; values can stand above or below the compound they belong to.

Tests used:
Format in all cases: binding
AF0933 [1] = molecular target: T1, AF0933 (Archaeoglobus fulgidus, UniProt O29329); assay: X-ray crystal structure, […] Å, co-crystallization; settings: 5 mM gabaculine; covalent adduct with PLP, irreversible; partial occupancy, absent in subunit F
T1 construct: gene ilvE; His-tagged (pLATE51, E. coli Rosetta (DE3)-pLysS); homohexamer in solution; catalytic Lys150
T1 sequence (O29329 1-290): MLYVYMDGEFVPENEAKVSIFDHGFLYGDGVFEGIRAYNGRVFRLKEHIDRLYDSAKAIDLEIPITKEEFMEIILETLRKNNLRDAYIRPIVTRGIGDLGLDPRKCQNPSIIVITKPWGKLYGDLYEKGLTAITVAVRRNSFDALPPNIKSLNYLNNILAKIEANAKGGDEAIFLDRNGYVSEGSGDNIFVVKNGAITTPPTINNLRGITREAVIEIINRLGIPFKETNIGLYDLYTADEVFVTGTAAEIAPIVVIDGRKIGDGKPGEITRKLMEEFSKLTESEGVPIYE

GEO1900 [2] = molecular target: T2, GEO1900 (Geoglobus acetivorans, UniProt A0A0A7GJ30); assay: X-ray crystal structure, […] Å; settings: covalent internal aldimine with Lys152
T2 construct: gene ilvE; mainly homodimer in solution, hexamer in crystal; catalytic Lys152

AF0933 [3] = molecular target: T1, AF0933; assay: X-ray crystal structure, […] Å; settings: covalent internal aldimine with Lys150
GEO1900 [4] = molecular target: T2, GEO1900; assay: X-ray crystal structure, […] Å, soak; settings: 50 mM AKG soak; unproductive complex with holoenzyme; active site of subunit A only

T2 sequence (A0A0A7GJ30 entry or part of it): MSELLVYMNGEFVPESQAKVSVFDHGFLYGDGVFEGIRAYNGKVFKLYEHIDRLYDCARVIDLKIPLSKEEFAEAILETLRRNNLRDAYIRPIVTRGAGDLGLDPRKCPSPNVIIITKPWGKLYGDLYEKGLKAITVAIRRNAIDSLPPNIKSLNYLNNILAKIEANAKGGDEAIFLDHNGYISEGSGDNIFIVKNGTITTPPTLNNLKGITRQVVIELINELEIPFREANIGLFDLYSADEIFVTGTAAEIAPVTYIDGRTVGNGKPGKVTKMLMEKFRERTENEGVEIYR

Structure (SMILES): N[C@@H]1C=CC=C(C(=O)O)C1 [gabaculine]
X-ray crystal structure, 2.0 Å, co-crystallization (AF0933 [1]): AF0933 complexed with gabaculine 5MR0

Structure (SMILES): Cc1ncc(COP(=O)(O)O)c(C=O)c1O [pyridoxal 5′-phosphate]
X-ray crystal structure, 1.9 Å (GEO1900 [2]): A PLP molecule is covalently bound to the catalytic Lys152 in the GEO1900 active site
X-ray crystal structure, 2.1 Å (AF0933 [3]): A PLP molecule is covalently bound to the catalytic Lys152 in the GEO1900 active site (Lys150

X-ray crystal structure, 2.2 Å, soak (GEO1900 [4]): GEO1900 complexed with AKG 5E25
Structure (SMILES): O=C(O)CCC(=O)C(=O)O [α-ketoglutarate]
